Source: patent US8846933B2, “N-link hydroxamic acid derivatives useful as antibacterial agents” (Pfizer Inc., priority 2009, dated 2014)

Experiments:
[1] = system: Escherichia coli EC-1: VOGEL, mouse virulent; experiment: MIC determination (CLSI), strain EC-1; type: cell-based; conditions: strain EC-1, unit assumed
Summary of the method: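 The mouse-virulent VOGEL isolate of E. coli, EC-1, served as test organism. Minimum inhibitory concentration was measured by CLSI dilution methodology (M7-A7; M100-S18 standards).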

[2] = system: Pseudomonas aeruginosa UI-18: Wild-type (PA-7); experiment: MIC determination (CLSI), strain PA-7; type: cell-based; conditions: strain PA-7, unit assumed
Summary of the method: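 Strain tested was P. aeruginosa UI-18, a wild-type isolate labelled PA-7. Minimum inhibitory concentrations followed CLSI dilution methodology for aerobically growing bacteria (M7-A7, M100-S18).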

[3] = generated in the same manner as in Table 4

| SMILES | EC-1 (MIC) [1, 3] [µg/mL] | PA-7 (MIC) [2, 3] [µg/mL] | EC-1 (MIC) [1] [µg/mL] | PA-7 (MIC) [2] [µg/mL] |
| --- | --- | --- | --- | --- |
| CC(CCn1ccc(-c2ccc(Oc3ccccc3)cc2)cc1=O)(C(=O)NO)S(C)(=O)=O (stereo not shown) [Example 156, N-hydroxy-2-methyl-2-(methylsulfonyl)-4-[2-oxo-4-(4-phenoxyphenyl)pyridin-1(2H)-yl]butanamide] | < 0.06 | 4 |  |  |
| CC(CCn1ccc(-c2cccc(F)c2Cl)cc1=O)(C(=O)NO)S(C)(=O)=O (stereo not shown) [Example 157, 4-[4-(2-chloro-3-fluorophenyl)-2-oxopyridin-1(2H)-yl]-N-hydroxy-2-methyl-2-(methylsulfonyl)butanamide] | 4 | 2 |  |  |
| Cc1ccc(-c2ccn(CCC(C)(C(=O)NO)S(C)(=O)=O)c(=O)c2)o1 (stereo not shown) [Example 158] | 64 | 64 |  |  |
| CC(CCn1ccc(-c2ccccc2F)cc1=O)(C(=O)NO)S(C)(=O)=O (stereo not shown) [Example 159, 4-[4-(2-fluorophenyl)-2-oxopyridin-1(2H)-yl]-N-hydroxy-2-methyl-2-(methylsulfonyl)butanamide] | 2 | 2 |  |  |
| Cc1ccc(S(=O)(=O)N(C)C)cc1-c1ccn(CCC(C)(C(=O)NO)S(C)(=O)=O)c(=O)c1 (stereo not shown) [Example 160, 4-[4-{5-[(dimethylamino)sulfonyl]-2-methylphenyl}-2-oxopyridin-1(2H)-yl]-N-hydroxy-2-methyl-2-(methylsulfonyl)butanamide] | > 64 | > 64 |  |  |
| COc1ccc(-c2ccn(CCC(C)(C(=O)NO)S(C)(=O)=O)c(=O)c2)c(OC)c1 (stereo not shown) [Example 161, 4-[4-(2,4-dimethoxyphenyl)-2-oxopyridin-1(2H)-yl]-N-hydroxy-2-methyl-2-(methylsulfonyl)butanamide] | 8 | 8 |  |  |
| CN1Cc2ccc(-c3ccn(CCC(C)(C(=O)NO)S(C)(=O)=O)c(=O)c3)cc2C1=O (stereo not shown) [Example 162, N-hydroxy-2-methyl-4-[4-(2-methyl-3-oxo-2,3-dihydro-1H-isoindol-5-yl)-2-oxopyridin-1(2H)-yl]-2-(methylsulfonyl)butanamide] | > 64 | > 64 |  |  |
| CC(CCn1ccc(-c2cccc(Cl)c2Cl)cc1=O)(C(=O)NO)S(C)(=O)=O (stereo not shown) [Example 163, 4-[4-(2,3-dichlorophenyl)-2-oxopyridin-1(2H)-yl]-N-hydroxy-2-methyl-2-(methylsulfonyl)butanamide] | 0.5 | 1 |  |  |
| CC(CCn1ccc(-c2ccc3c(c2)CCO3)cc1=O)(C(=O)NO)S(C)(=O)=O (stereo not shown) [Example 164, 4-[4-(2,3-dihydro-1-benzofuran-5-yl)-2-oxopyridin-1(2H)-yl]-N-hydroxy-2-methyl-2-(methylsulfonyl)butanamide] | 8 | 32 |  |  |
| CC(CCn1ccc(-c2cnn(Cc3ccccc3)c2)cc1=O)(C(=O)NO)S(C)(=O)=O (stereo not shown) [Example 165, 4-[4-(1-benzyl-1H-pyrazol-4-yl)-2-oxopyridin-1(2H)-yl]-N-hydroxy-2-methyl-2-(methylsulfonyl)butanamide] | > 64 | > 64 |  |  |
| COc1cc(F)ccc1-c1ccn(CCC(C)(C(=O)NO)S(C)(=O)=O)c(=O)c1 (stereo not shown) [Example 166, 4-[4-(4-fluoro-2-methoxyphenyl)-2-oxopyridin-1(2H)-yl]-N-hydroxy-2-methyl-2-(methylsulfonyl)butanamide] | 16 | 8 |  |  |
| CC(=O)c1ccc(-c2ccn(CCC(C)(C(=O)NO)S(C)(=O)=O)c(=O)c2)s1 (stereo not shown) [Example 167, 4-[4-(5-acetyl-2-thienyl)-2-oxopyridin-1(2H)-yl]-N-hydroxy-2-methyl-2-(methylsulfonyl)butanamide] | 16 | 16 |  |  |
| CC(C)Oc1ncccc1-c1ccn(CCC(C)(C(=O)NO)S(C)(=O)=O)c(=O)c1 (stereo not shown) [Example 168, N-hydroxy-4-(2-isopropoxy-2′-oxo-3,4′-bipyridin-1′(2′H)-yl)-2-methyl-2-(methylsulfonyl)butanamide] | > 64 | > 64 |  |  |
| CC(CCn1ccc(-c2cccc(C#N)c2)cc1=O)(C(=O)NO)S(C)(=O)=O (stereo not shown) [Example 169, 4-[4-(3-cyanophenyl)-2-oxopyridin-1(2H)-yl]-N-hydroxy-2-methyl-2-(methylsulfonyl)butanamide] | > 64 | 64 |  |  |
| COc1ccc(-c2ccn(CCC(C)(C(=O)NO)S(C)(=O)=O)c(=O)c2)cc1 (stereo not shown) [Example 170, N-hydroxy-4-[4-(4-methoxyphenyl)-2-oxopyridin-1(2H)-yl]-2-methyl-2-(methylsulfonyl)butanamide] | 1 | 1 |  |  |
| Cc1ccc(F)cc1-c1ccn(CCC(C)(C(=O)NO)S(C)(=O)=O)c(=O)c1 (stereo not shown) [Example 171, 4-[4-(5-fluoro-2-methylphenyl)-2-oxopyridin-1(2H)-yl]-N-hydroxy-2-methyl-2-(methylsulfonyl)butanamide] | 64 | 32 |  |  |

| SMILES | EC-1 (MIC) [1, 3] [µg/mL] | PA-7 (MIC) [2, 3] [µg/mL] | EC-1 (MIC) [1] [µg/mL] | PA-7 (MIC) [2] [µg/mL] |
| --- | --- | --- | --- | --- |
| Cn1ccnc1-c1cccc(-c2ccn(CCC(C)(C(=O)NO)S(C)(=O)=O)c(=O)c2)c1 (stereo not shown) [Example 172, N-hydroxy-2-methyl-4-{4-[3-(1-methyl-1H-imidazol-2-yl)phenyl]-2-oxopyridin-1(2H)-yl}-2-(methylsulfonyl)butanamide] | > 64 | > 64 |  |  |
| COc1ccc(F)cc1-c1ccn(CCC(C)(C(=O)NO)S(C)(=O)=O)c(=O)c1 (stereo not shown) [Example 173, 4-[4-(5-fluoro-2-methoxyphenyl)-2-oxopyridin-1(2H)-yl]-N-hydroxy-2-methyl-2-(methylsulfonyl)butanamide] | 64 | 64 |  |  |
| CC(CCn1ccc(-c2ccc(C(F)(F)F)cc2C(F)(F)F)cc1=O)(C(=O)NO)S(C)(=O)=O (stereo not shown) [Example 174, 4-{4-[2,4-bis(trifluoromethyl)phenyl]-2-oxopyridin-1(2H)-yl}-N-hydroxy-2-methyl-2-(methylsulfonyl)butanamide] | 64 | > 64 |  |  |
| CC(CCn1ccc(-c2ccco2)cc1=O)(C(=O)NO)S(C)(=O)=O (stereo not shown) [Example 175, 4-[4-(2-furyl)-2-oxopyridin-1(2H)-yl]-N-hydroxy-2-methyl-2-(methylsulfonyl)butanamide] | 64 | 16 |  |  |
| CC(CCn1ccc(-c2ccc3cc[nH]c3c2)cc1=O)(C(=O)NO)S(C)(=O)=O (stereo not shown) [Example 176, N-hydroxy-4-[4-(1H-indol-6-yl)-2-oxopyridin-1(2H)-yl]-2-methyl-2-(methylsulfonyl)butanamide] | 8 | 4 |  |  |
| CCNC(=O)c1ccc(-c2ccn(CCC(C)(C(=O)NO)S(C)(=O)=O)c(=O)c2)cc1F (stereo not shown) [Example 177, N-ethyl-2-fluoro-4-{1-[4-(hydroxyamino)-3-methyl-3-(methylsulfonyl)-4-oxobutyl]-2-oxo-1,2-dihydropyridin-4-yl}benzamide] | > 64 | 64 |  |  |
| Cc1cccc(-c2ccn(CCC(C)(C(=O)NO)S(C)(=O)=O)c(=O)c2)c1 (stereo not shown) [Example 178, N-hydroxy-2-methyl-4-[4-(3-methylphenyl)-2-oxopyridin-1(2H)-yl]-2-(methylsulfonyl)butanamide] | 4 | 2 |  |  |
| CN1Cc2cc(-c3ccn(CCC(C)(C(=O)NO)S(C)(=O)=O)c(=O)c3)ccc2C1=O (stereo not shown) [Example 179, N-hydroxy-2-methyl-4-[4-(2-methyl-1-oxo-2,3-dihydro-1H-isoindol-5-yl)-2-oxopyridin-1(2H)-yl]-2-(methylsulfonyl)butanamide] | > 64 | > 64 |  |  |
| COc1ccc(-c2ccn(CCC(C)(C(=O)NO)S(C)(=O)=O)c(=O)c2)cc1F (stereo not shown) [Example 180, 4-[4-(3-fluoro-4-methoxyphenyl)-2-oxopyridin-1(2H)-yl]-N-hydroxy-2-methyl-2-(methylsulfonyl)butanamide] | 2 | 8 |  |  |
| CC(CCn1ccc(-c2ccc(OCC3CCCCC3)nc2)cc1=O)(C(=O)NO)S(C)(=O)=O (stereo not shown) [Example 181, 4-[6-(cyclohexylmethoxy)-2′-oxo-3,4′-bipyridin-1′(2′H)-yl]-N-hydroxy-2-methyl-2-(methylsulfonyl)butanamide] | 0.125 | 4 |  |  |
| COc1ncccc1-c1ccn(CCC(C)(C(=O)NO)S(C)(=O)=O)c(=O)c1 (stereo not shown) [Example 182, N-hydroxy-4-(2-methoxy-2′-oxo-3,4′-bipyridin-1′(2′H)-yl)-2-methyl-2-(methylsulfonyl)butanamide] | > 64 | 64 |  |  |
| CC(CCn1ccc(-c2ccccc2C(F)(F)F)cc1=O)(C(=O)NO)S(C)(=O)=O (stereo not shown) [Example 183, N-hydroxy-2-methyl-2-(methylsulfonyl)-4-{2-oxo-4-[2-(trifluoromethyl)phenyl]pyridin-1(2H)-yl}butanamide] | 32 | 32 |  |  |
| CCOc1ccc(-c2ccn(CCC(C)(C(=O)NO)S(C)(=O)=O)c(=O)c2)cc1F (stereo not shown) [Example 184, 4-[4-(4-ethoxy-3-fluorophenyl)-2-oxopyridin-1(2H)-yl]-N-hydroxy-2-methyl-2-(methylsulfonyl)butanamide] |  |  | 0.5 | 2 |
| CCOc1ccc(-c2ccn(CCC(C)(C(=O)NO)S(C)(=O)=O)c(=O)c2)cn1 (stereo not shown) [Example 185, 4-(6-ethoxy-2′-oxo-3,4′-bipyridin-1′(2′H)-yl)-N-hydroxy-2-methyl-2-(methylsulfonyl)butanamide] |  |  | 2 | 4 |
| CC(CCn1ccc(-c2ccc(F)cc2F)cc1=O)(C(=O)NO)S(C)(=O)=O (stereo not shown) [Example 186, 4-[4-(2,4-difluorophenyl)-2-oxopyridin-1(2H)-yl]-N-hydroxy-2-methyl-2-(methylsulfonyl)butanamide] |  |  | 2 | 2 |
| CC(CCn1ccc(-c2cccc(F)c2)cc1=O)(C(=O)NO)S(C)(=O)=O (stereo not shown) [Example 187, 4-[4-(3-fluorophenyl)-2-oxopyridin-1(2H)-yl]-N-hydroxy-2-methyl-2-(methylsulfonyl)butanamide] |  |  | 8 | 2 |
